# Assays:
# [1] = Quantum yield measurements versus Acridine Yellow in EtOH; type: physicochemical; settings: MKCA compound library; quantum yield
# Method in brief: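 Emission areas integrated over 510–700 nm were compared with Acridine Yellow in ethanol (Φ=0.47), all excited at 460 nm. The comparative equation was normalized to excitation-wavelength absorbance and solvent refractive index.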
# [2] = Absorbance and fluorescence emission spectra (SpectraMax M2); type: physicochemical; settings: MKCA compound library; for λmax Absorp. (nm): absorbance maximum; for λmax Emission (nm): fluorescence emission maximum
# Method in brief: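 Spectroscopic data, including quantum yields, were recorded with a SpectraMax M2 instrument and analysed in GraphPrism.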
SMILES,φ (%) [1] [%],λmax Absorp. (nm) [2] [nm],λmax Emission (nm) [2] [nm]
Cc1ccccc1CNC1=[N+]2C(=C(c3ccc(NC(=O)CCl)cc3)c3ccc(-n4cc(C5CCCC5)nn4)n3[B-]2(F)F)C=C1 [MKCA101-5],31.53,466,563
Cc1ccccc1CNC1=[N+]2C(=C(c3ccc(NC(=O)CCl)cc3)c3ccc(-n4cc(CC5CCCCC5)nn4)n3[B-]2(F)F)C=C1 [MKCA101-8],30.95,464,562
Cc1ccccc1CNC1=[N+]2C(=C(c3ccc(NC(=O)CCl)cc3)c3ccc(-n4cc(CN(C)Cc5ccccc5)nn4)n3[B-]2(F)F)C=C1 [MKCA101-18],21.53,462,562
Cc1ccccc1CNC1=[N+]2C(=C(c3ccc(NC(=O)CCl)cc3)c3ccc(-n4cc(CCc5ccccc5)nn4)n3[B-]2(F)F)C=C1 [MKCA101-19],33.37,463,562
Cc1ccccc1CNC1=[N+]2C(=C(c3ccc(NC(=O)CCl)cc3)c3ccc(-n4cc(CC(C)C)nn4)n3[B-]2(F)F)C=C1 [MKCA101-43],29.92,466,562
CCCc1cn(-c2ccc3n2[B-](F)(F)[N+]2=C(NCc4ccccc4C)C=CC2=C3c2ccc(NC(=O)CCl)cc2)nn1 [MKCA101-48],28.94,465,562
CCCCCC(O)c1cn(-c2ccc3n2[B-](F)(F)[N+]2=C(NCc4ccccc4C)C=CC2=C3c2ccc(NC(=O)CCl)cc2)nn1 (stereo not drawn) [MKCA101-69],21.93,466,562
Cc1ccccc1CNC1=[N+]2C(=C(c3ccc(NC(=O)CCl)cc3)c3ccc(-n4cc(CO)nn4)n3[B-]2(F)F)C=C1 [MKCA101-70],21.76,465,560
CCCC(C)c1cn(-c2ccc3n2[B-](F)(F)[N+]2=C(NCc4ccccc4OCC)C=CC2=C3c2ccc(NC(=O)CCl)cc2)nn1 (stereo not drawn) [MKCA103-3],23.61,466,562
CCOc1ccccc1CNC1=[N+]2C(=C(c3ccc(NC(=O)CCl)cc3)c3ccc(-n4cc(C5CC5)nn4)n3[B-]2(F)F)C=C1 [MKCA103-4],36.22,464,564
CCOc1ccccc1CNC1=[N+]2C(=C(c3ccc(NC(=O)CCl)cc3)c3ccc(-n4cc(C5CCCC5)nn4)n3[B-]2(F)F)C=C1 [MKCA103-5],33.46,464,563
CCOc1ccccc1CNC1=[N+]2C(=C(c3ccc(NC(=O)CCl)cc3)c3ccc(-n4cc(CC5CCCCC5)nn4)n3[B-]2(F)F)C=C1 [MKCA103-8],37.77,464,563
CCOc1ccccc1CNC1=[N+]2C(=C(c3ccc(NC(=O)CCl)cc3)c3ccc(-n4cc(CN(C)Cc5ccccc5)nn4)n3[B-]2(F)F)C=C1 [MKCA103-18],24.66,462,561
CCOc1ccccc1CNC1=[N+]2C(=C(c3ccc(NC(=O)CCl)cc3)c3ccc(-n4cc(CCc5ccccc5)nn4)n3[B-]2(F)F)C=C1 [MKCA103-19],36.82,464,563
CCOc1ccccc1CNC1=[N+]2C(=C(c3ccc(NC(=O)CCl)cc3)c3ccc(-n4cc(CC(C)C)nn4)n3[B-]2(F)F)C=C1 [MKCA103-43],33.76,465,563
CCCc1cn(-c2ccc3n2[B-](F)(F)[N+]2=C(NCc4ccccc4OCC)C=CC2=C3c2ccc(NC(=O)CCl)cc2)nn1 [MKCA103-48],38.23,465,562
CCCCCC(O)c1cn(-c2ccc3n2[B-](F)(F)[N+]2=C(NCc4ccccc4OCC)C=CC2=C3c2ccc(NC(=O)CCl)cc2)nn1 (stereo not drawn) [MKCA103-69],33.49,465,562

SMILES,φ (%) [1] [%],λmax Absorp. (nm) [2] [nm],λmax Emission (nm) [2] [nm]
CCOc1ccccc1CNC1=[N+]2C(=C(c3ccc(NC(=O)CCl)cc3)c3ccc(-n4cc(CO)nn4)n3[B-]2(F)F)C=C1 [MKCA103-70],20.22,463,563
COc1ccc(OC)c(CNC2=[N+]3C(=C(c4ccc(NC(=O)CCl)cc4)c4ccc(-n5cc(C6CC6)nn5)n4[B-]3(F)F)C=C2)c1 [MKCA181-4],19.35,464,566
COc1ccc(OC)c(CNC2=[N+]3C(=C(c4ccc(NC(=O)CCl)cc4)c4ccc(-n5cc(C6CCCC6)nn5)n4[B-]3(F)F)C=C2)c1 [MKCA181-5],25.80,465,560
COc1ccc(OC)c(CNC2=[N+]3C(=C(c4ccc(NC(=O)CCl)cc4)c4ccc(-n5cc(CC6CCCCC6)nn5)n4[B-]3(F)F)C=C2)c1 [MKCA181-8],20.56,465,562
COc1ccc(OC)c(CNC2=[N+]3C(=C(c4ccc(NC(=O)CCl)cc4)c4ccc(-n5cc(CN(C)Cc6ccccc6)nn5)n4[B-]3(F)F)C=C2)c1 [MKCA181-18],21.65,462,563
COc1ccc(OC)c(CNC2=[N+]3C(=C(c4ccc(NC(=O)CCl)cc4)c4ccc(-n5cc(CC(C)C)nn5)n4[B-]3(F)F)C=C2)c1 [MKCA181-43],21.21,465,564
CCCc1cn(-c2ccc3n2[B-](F)(F)[N+]2=C(NCc4cc(OC)ccc4OC)C=CC2=C3c2ccc(NC(=O)CCl)cc2)nn1 [MKCA181-48],20.00,465,563
CCCCCC(O)c1cn(-c2ccc3n2[B-](F)(F)[N+]2=C(NCc4cc(OC)ccc4OC)C=CC2=C3c2ccc(NC(=O)CCl)cc2)nn1 (stereo not drawn) [MKCA181-69],14.25,465,558
COc1ccc(OC)c(CNC2=[N+]3C(=C(c4ccc(NC(=O)CCl)cc4)c4ccc(-n5cc(CO)nn5)n4[B-]3(F)F)C=C2)c1 [MKCA181-70],19.42,464,562
CCCC(C)c1cn(-c2ccc3n2[B-](F)(F)[N+]2=C(N(C)Cc4ccccc4)C=CC2=C3c2ccc(NC(=O)CCl)cc2)nn1 (stereo not drawn) [MKCA195-3],7.95,466,577
CN(Cc1ccccc1)C1=[N+]2C(=C(c3ccc(NC(=O)CCl)cc3)c3ccc(-n4cc(C5CC5)nn4)n3[B-]2(F)F)C=C1 [MKCA195-4],7.26,466,575
CN(Cc1ccccc1)C1=[N+]2C(=C(c3ccc(NC(=O)CCl)cc3)c3ccc(-n4cc(C5CCCC5)nn4)n3[B-]2(F)F)C=C1 [MKCA195-5],4.93,467,580
CN(Cc1ccccc1)C1=[N+]2C(=C(c3ccc(NC(=O)CCl)cc3)c3ccc(-n4cc(CC5CCCCC5)nn4)n3[B-]2(F)F)C=C1 [MKCA195-8],6.17,465,581
CN(Cc1ccccc1)Cc1cn(-c2ccc3n2[B-](F)(F)[N+]2=C(N(C)Cc4ccccc4)C=CC2=C3c2ccc(NC(=O)CCl)cc2)nn1 [MKCA195-18],3.03,462,580
CN(Cc1ccccc1)C1=[N+]2C(=C(c3ccc(NC(=O)CCl)cc3)c3ccc(-n4cc(CCc5ccccc5)nn4)n3[B-]2(F)F)C=C1 [MKCA195-19],6.77,467,586
CC(C)Cc1cn(-c2ccc3n2[B-](F)(F)[N+]2=C(N(C)Cc4ccccc4)C=CC2=C3c2ccc(NC(=O)CCl)cc2)nn1 [MKCA195-43],4.97,465,575
CCCCCC(O)c1cn(-c2ccc3n2[B-](F)(F)[N+]2=C(N(C)Cc4ccccc4)C=CC2=C3c2ccc(NC(=O)CCl)cc2)nn1 (stereo not drawn) [MKCA195-69],4.20,466,582

# Source: patent publication US9513294B2, “Megastokes amino-triazolyl-BODIPY compounds and applications to live neuron staining and human serum albumin FA1 drug site probing” (National University of Singapore, priority 2012, dated 2016)
